According to PubChem BioAssay AID2060330 (Molecular Pharmacology Branch, DTP, NCI, 2025):
Several values for one entry are separate records, joined by “and”; a condition that tells them apart may be missing. Identical values can stand only once.

Test system: LG0703-F948-PDC spheroids with HUVEC/MSC, viability
Assay: Anticancer human tumor LG0703-F948-PDC patient-derived lung adenocarcinoma cell line growth inhibition [IpAb]
Conditions: for viability, T/C: stronger effect = lower value
Source text: Combinatorial screen of targeted agents with ipatasertib and abemaciclib in multi-cell type tumor spheroids
A high-throughput screen of multi-cell type tumor spheroids was designed to identify active combinations of targeted small molecules and ipatasertib or abemaciclib. Complex spheroids include a stromal component modeled by human endothelial cells (HUVEC) and fibroblasts modeled by human mesenchymal stem cells (MSCs). The concentration ranges selected for each drug and investigational agent were based upon clinically achievable concentrations if the clinical Cmax of the agent was known.
Compounds. The drugs and investigational agents: ipatasertib (NSC767898), abemaciclib(NSC768073), selumetinib (NSC741078), trametinib (758246), adavosertib (NSC754352), everolimus (NSC733504), sapanisertib (NSC764658), vemurafenib (NSC761431), venetoclax (NSC766270), copanlisib (NSC809693), apelisib (NSC765974), palbociblib (NSC758247), vemurafenib (NSC761431), dabrafenib (NSC764134), ravoxertinib (NSC781343), BMS-387032 (NSC767048), sotorasib (NSC818433), talazoparib (NSC767125) and afursertib (NSC778305), were obtained from the National Cancer Institute (NCI) Developmental Therapeutics Program Chemical Repository. The FDA-approved anticancer drug set is available from the NCI Developmental Therapeutics Program. […] The stock solutions were prepared in dimethyl sulfoxide (DMSO, Sigma-Aldrich, St. Louis, MO, cat. D2650) at 800-fold the tested concentration and stored at -70 degrees C prior to their use. All drugs and investigational agents were tested over a range starting from a high concentration at or near the clinical Cmax and decreasing in half-log increments. If the clinical Cmax for an agent had not been determined, the highest concentration tested was 10 microM.
NCI60 Cell Culture. NCI60 cell lines were obtained from the NCI Developmental Therapeutics Program Tumor Repository. For each lot of cells, the Repository performed Applied Biosystems AmpFLSTR Identifiler testing with PCR amplification to confirm consistency with the published Identifier STR profile for each cell line. Cells were kept in continuous culture for no more than 20 passages. The optimal seeding densities for each of the cell lines at each time point assessed were determined prior to performing the concentration response studies. Briefly, the NCI60 human tumor lines were grown as monolayers in RPMI 1640 medium supplemented with 10% FBS and 2 mmol/L L-glutamine.
An additional 9 lines were from the NCI60 cell line panel including MDA-MB-231 breast carcinoma, MDA-MB-468 breast carcinoma, MCF7 breast carcinoma, Hs578T breast carcinoma, MALME-3M melanoma, SK-MEL-2 melanoma, SK-OV-3 ovarian carcinoma, DU-145 prostate carcinoma, PC-3 prostate carcinoma, all cell lines along with major genetic alterations are listed on Table 2. Pooled donor human umbilical vein endothelial cells (HUVEC, Lonza, cat. CC-2519) and human mesenchymal stem cells (hMSC, Lonza, cat. PT-2501) were purchased from Lonza (Walkersville, MD).
PDMR cell lines were grown in complete medium (DC medium): Dulbecco's modified Eagle's medium (DMEM)/F12 supplemented with 5% fetal bovine serum (FBS), 2 mM L-glutamine, 100 U/mL penicillin and 100 µg/ml streptomycin, 0.4 µg/ml hydrocortisone, 10 ng/ml epidermal growth factor (EGF) recombinant human protein, 24 µg/mL adenine, and 0.1 mg/mL primocin. During culture from frozen stock vials, PDMR cells were cultured in the same medium containing 10 µM Y-27632 (see Table 3). The PDCs were cultured in complete DMEM/F12 media without 10 microM Y-27632 dihydrochloride for at least two passages prior to the screen. The pooled donor HUVEC and hMSC were cultured in endothelial cell growth medium 2 (PromoCell, Heidelberg, Germany, cat. C-22011) and mesenchymal stem cell growth medium 2 (PromoCell, cat. C-28009), respectively. For all experiments, HUVEC and hMSC were used at passages </=5.
[…]
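Further: spheroids exposed to compounds for seven days before readout.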
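Wherever viability, T/C is given: T/C percent relative to DMSO vehicle wells set as 100% viability.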

Cc1nc(NC(=O)N2CCCC2C(N)=O)sc1-c1ccnc(C(C)(C)C(F)(F)F)c1 (stereo not given)
viability, T/C (compound 0.0316 µM): 93.3% and 92% | viability, T/C (compound 0.1 µM): 85.5% and 87.4% | viability, T/C (compound 0.316 µM): 77.1% and 72.5% | viability, T/C (compound 1 µM): 53.9% and 63.8% | viability, T/C (compound 3.16 µM): 28% and 30.2% | viability, T/C (compound 10 µM): 3.02% and 2.66% | IC50 (curve of compound): 1.23 µM and 1.48 µM

Cn1cnc2c(F)c(Nc3ccc(Br)cc3Cl)c(C(=O)NOCCO)cc21
viability, T/C (compound 0.00949 µM): 85.5% and 87.7% | viability, T/C (compound 0.03 µM): 64.7% and 68.2% | viability, T/C (compound 0.0949 µM): 53.1% and 54.3% | viability, T/C (compound 0.3 µM): 50.3% and 50.7% | viability, T/C (compound 0.949 µM): 37.5% and 43.6% | viability, T/C (compound 3 µM): 35.4% and 42.1% | IC50 (curve of compound): 0.166 µM and 0.234 µM

Cn1ncc(Cl)c1-c1cc(C(=O)NC(CN)Cc2cccc(F)c2)sc1Cl (stereo not given)
viability, T/C (compound 0.0316 µM): 85.7% and 79% | viability, T/C (compound 0.1 µM): 71.9% and 81.5% | viability, T/C (compound 0.316 µM): 60.7% and 58.4% | viability, T/C (compound 1 µM): 48% and 62.5% | viability, T/C (compound 3.16 µM): 17.1% and 21.7% | viability, T/C (compound 10 µM): 0.19% | IC50 (curve of compound): 0.65 µM and 1.17 µM

Cn1nccc1Nc1nccc(-c2ccn(C(CO)c3ccc(Cl)c(F)c3)c(=O)c2)n1 (stereo not given)
viability, T/C (compound 0.0316 µM): 93.2% and 90.2% | viability, T/C (compound 0.1 µM): 90.3% and 80.3% | viability, T/C (compound 0.316 µM): 71.5% and 79% | viability, T/C (compound 1 µM): 77.8% and 60.3% | viability, T/C (compound 3.16 µM): 85.2% and 81% | viability, T/C (compound 10 µM): 52.8% and 67.5% | IC50 (curve of compound): > 10 µM

Cn1ncnc1[C@H]1c2n[nH]c(=O)c3cc(F)cc(c23)N[C@@H]1c1ccc(F)cc1
viability, T/C (compound 0.000316 µM): 108% and 102% | viability, T/C (compound 0.001 µM): 100% and 95.7% | viability, T/C (compound 0.00316 µM): 96.7% and 99% | viability, T/C (compound 0.01 µM): 102% and 101% | viability, T/C (compound 0.0316 µM): 87.6% and 92.6% | viability, T/C (compound 0.1 µM): 83.5% and 84.1% | IC50 (curve of compound): > 0.1 µM

Cn1cnc2c(F)c(Nc3ccc(Br)cc3Cl)c(C(=O)NOCCO)cc21 + CC(C)NCC(C(=O)N1CCN(c2ncnc3c2C(C)CC3O)CC1)c1ccc(Cl)cc1
IC50 (curve of first compound, second compound 0.1 µM): 0.0124 µM | IC50 (curve of first compound, second compound 0.316 µM): < 0.00949 µM | IC50 (curve of first compound, second compound 1 µM): < 0.00949 µM | IC50 (curve of first compound, second compound 3.16 µM): < 0.00949 µM | IC50 (curve of first compound, second compound 10 µM): < 0.00949 µM | viability, T/C (second compound 0.1 µM, first compound 0.00949 µM): 55% | viability, T/C (second compound 0.1 µM, first compound 0.03 µM): 35.1% | viability, T/C (second compound 0.1 µM, first compound 0.0949 µM): 27.4% | viability, T/C (second compound 0.1 µM, first compound 0.3 µM): 20.1% | viability, T/C (second compound 0.1 µM, first compound 0.949 µM): 18.3% | viability, T/C (second compound 0.1 µM, first compound 3 µM): 14% | viability, T/C (second compound 0.316 µM, first compound 0.00949 µM): 36.3% | viability, T/C (second compound 0.316 µM, first compound 0.03 µM): 19.5% | viability, T/C (second compound 0.316 µM, first compound 0.0949 µM): 14.1% | viability, T/C (second compound 0.316 µM, first compound 0.3 µM): 7.81% | viability, T/C (second compound 0.316 µM, first compound 0.949 µM): 7.98% | viability, T/C (second compound 0.316 µM, first compound 3 µM): 3.28% | viability, T/C (second compound 1 µM, first compound 0.00949 µM): 21.6% | viability, T/C (second compound 1 µM, first compound 0.03 µM): 12.9% | viability, T/C (second compound 1 µM, first compound 0.0949 µM): 5.36% | viability, T/C (second compound 1 µM, first compound 0.3 µM): 3.84% | viability, T/C (second compound 1 µM, first compound 0.949 µM): 2.91% | viability, T/C (second compound 1 µM, first compound 3 µM): 1.32% | viability, T/C (second compound 3.16 µM, first compound 0.00949 µM): 13.7% | viability, T/C (second compound 3.16 µM, first compound 0.03 µM): 6.24% | viability, T/C (second compound 3.16 µM, first compound 0.0949 µM): 3.66% | viability, T/C (second compound 3.16 µM, first compound 0.3 µM): 3.22% | viability, T/C (second compound 3.16 µM, first compound 0.949 µM): 2.57% | viability, T/C (second compound 3.16 µM, first compound 3 µM): 3.42% | viability, T/C (second compound 10 µM, first compound 0.00949 µM): 7.41% | viability, T/C (second compound 10 µM, first compound 0.03 µM): 4.11% | viability, T/C (second compound 10 µM, first compound 0.0949 µM): 1.36% | viability, T/C (second compound 10 µM, first compound 0.3 µM): 2.06% | viability, T/C (second compound 10 µM, first compound 0.949 µM): 1% | viability, T/C (second compound 10 µM, first compound 3 µM): 0.28%
